Experimental data published in ChEMBL document CHEMBL4665663, “Anti-atherosclerosis effect of HS donors based on nicotinic acid and chlorfibrate structures” (Bioorg Med Chem, 2019).
Blank lines part the entries; values can stand above or below the compound they belong to. Active and inactive are the calls of the source. The calls are words filed in the database; no cut-off is given here.

Legend:
[1] = Prodrug release in phosphate buffer containing L-cysteine assessed as H2S release by measuring H2S releasing half-life at 60 uM by methylene blue method; assay type: ADME
[2] = system: H9c2; experiment: Cytotoxicity against rat H9c2 cells assessed as reduction in cell viability after 48 hrs by MTT assay; assay type: cell-based; settings: H9c2, 48 h
[3] = system: HUVEC; experiment: Cytotoxicity against human HUVEC cells assessed as reduction in cell viability after 48 hrs by MTT assay; assay type: cell-based
[4] = system: RAW264.7; experiment: Cytotoxicity against mouse RAW264.7 cells assessed as reduction in cell viability after 48 hrs by MTT assay; assay type: cell-based; settings: RAW264.7, 48 h
[5] = system: WI-38; experiment: Cytotoxicity against human WI38 cells assessed as reduction in cell viability after 48 hrs by MTT assay; assay type: cell-based; settings: WI-38, 48 h
[6] = system: HUVEC; experiment: Cytoprotective activity against ox-LDL induced cell damage in human HUVEC cells assessed as increase in cell viability at 50 to 100 uM preincubated for 10 mins followed by ox-LDL stimulation measured after 24 hrs by MTT assay; assay type: functional, cell-based; settings: dose microM 50-100, time 10.0 min
[7] = system: HUVEC; experiment: Cytotoxicity against human HUVEC cells assessed as reduction in cell viability at 10 to 100 uM by MTT assay; assay type: cell-based; settings: dose 10-100 µM

t1/2 [1]: 0.9 min
Compound: COc1ccc(NC(=S)OCCNC(=O)C(C)(C)Oc2ccc(Cl)cc2)cc1
IC50 [2]: 747 µM
IC50 [3]: 616 µM
IC50 [4]: > 800 µM
IC50 [5]: 780 µM

t1/2 [1]: 5.6 min
Compound: CC(C)(Oc1ccc(Cl)cc1)C(=O)Oc1ccc(C(N)=S)cc1
IC50 [2]: 797 µM
IC50 [3]: 755 µM
IC50 [4]: > 800 µM
IC50 [5]: > 800 µM

t1/2 [1]: 0.9 min
Compound: Cc1ccc(NC(=S)OCCNC(=O)c2cccnc2)cc1
IC50 [2]: 726 µM
IC50 [3]: 567 µM
IC50 [4]: > 800 µM
IC50 [5]: > 800 µM

t1/2 [1]: 1.5 min
Compound: O=C(NCCOC(=S)Nc1ccc(F)cc1)c1cccnc1
IC50 [2]: > 800 µM
IC50 [3]: 692 µM
IC50 [4]: > 800 µM
IC50 [5]: > 800 µM

t1/2 [1]: 3.3 min
Compound: O=C(Oc1ccc(-c2cc(=S)ss2)cc1)c1cccnc1
IC50 [2]: 627 µM
IC50 [3]: 562 µM
IC50 [4]: > 800 µM
IC50 [5]: 734 µM

t1/2 [1]: 0.8 min
Compound: COc1ccc(NC(=S)OCCNC(=O)c2cccnc2)cc1
IC50 [2]: 694 µM
IC50 [3]: 550 µM
IC50 [4]: > 800 µM
IC50 [5]: 781 µM

t1/2 [1]: 4.2 min
Compound: CC(C)(Oc1ccc(Cl)cc1)C(=O)Oc1ccc(-c2cc(=S)ss2)cc1
IC50 [2]: 675 µM
IC50 [3]: 616 µM
IC50 [4]: > 800 µM
IC50 [5]: 764 µM

t1/2 [1]: 1.7 min
Compound: CC(C)(Oc1ccc(Cl)cc1)C(=O)NCCOC(=S)Nc1ccc([N+](=O)[O-])cc1Cl
Activity [6]: Active
Activity [7]: Non-Toxic
IC50 [2]: > 800 µM
IC50 [3]: 729 µM
IC50 [4]: > 800 µM
IC50 [5]: > 800 µM

t1/2 [1]: 2.1 min
Compound: O=C(NCCOC(=S)Nc1ccc([N+](=O)[O-])cc1Cl)c1cccnc1
Activity [6]: Active
Activity [7]: Non-Toxic
IC50 [2]: > 800 µM
IC50 [3]: 701 µM
IC50 [4]: > 800 µM
IC50 [5]: > 800 µM
